# Reference: PubChem BioAssay AID1645863 (Buhrlage Lab, Dana-Farber Cancer Institute and Novartis …, 2021)
# Calls of active or inactive are those of the source. The rule behind the calls is not given here.
# Molecular target: Ubiquitin carboxyl-terminal hydrolase 10 (Homo sapiens) (UniProt Q14694)
# Assay: primary hit verification, biochemical, ubiquitin-specific protease 10 deubiquitylase inhibitors, concentration-effect titration (AID 1645863);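 note: potency values describe inhibition of USP10 cleavage of a fluorogenic ubiquitin substrate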
# Conditions: USP10 deubiquitinase enzymatic assay
# Sequence of Ubiquitin carboxyl-terminal hydrolase 10 (Homo sapiens) (Q14694 whole entry, looked up): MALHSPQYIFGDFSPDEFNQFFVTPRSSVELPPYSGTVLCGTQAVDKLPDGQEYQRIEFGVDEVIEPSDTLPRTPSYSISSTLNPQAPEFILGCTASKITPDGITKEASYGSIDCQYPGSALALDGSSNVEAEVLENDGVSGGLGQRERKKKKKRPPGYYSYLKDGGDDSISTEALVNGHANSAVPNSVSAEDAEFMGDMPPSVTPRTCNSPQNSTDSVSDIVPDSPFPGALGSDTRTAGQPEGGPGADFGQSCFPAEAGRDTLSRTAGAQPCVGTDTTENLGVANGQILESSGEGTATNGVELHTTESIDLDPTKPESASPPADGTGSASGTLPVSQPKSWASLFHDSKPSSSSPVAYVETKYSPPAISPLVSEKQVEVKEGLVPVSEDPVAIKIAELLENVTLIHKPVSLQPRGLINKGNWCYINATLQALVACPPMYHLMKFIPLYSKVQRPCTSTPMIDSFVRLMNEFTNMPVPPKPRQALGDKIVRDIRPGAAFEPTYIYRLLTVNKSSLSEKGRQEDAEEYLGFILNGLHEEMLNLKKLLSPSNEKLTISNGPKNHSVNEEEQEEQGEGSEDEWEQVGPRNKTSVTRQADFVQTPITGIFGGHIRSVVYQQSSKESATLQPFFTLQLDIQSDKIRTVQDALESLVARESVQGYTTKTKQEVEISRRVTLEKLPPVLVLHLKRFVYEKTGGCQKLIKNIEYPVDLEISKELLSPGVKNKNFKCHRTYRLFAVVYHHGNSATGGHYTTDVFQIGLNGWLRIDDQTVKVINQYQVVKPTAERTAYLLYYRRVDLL
row,Structure (SMILES),IC50
1,O=C(CSc1nnc2ccc3ccccc3n12)c1ccc(Cl)cc1,> 40 µM (inactive)
2,COc1ccccc1N(CC(=O)N1c2ccccc2CC1C)S(=O)(=O)c1ccc(F)cc1 (stereo unspecified),> 40 µM (inactive)
3,Cc1ccc(-c2cc(C(F)F)n3ncc(C(=O)Nc4ccc(O)cc4)c3n2)cc1,14.4 µM
4,Fc1cccc(Nc2nc(-c3ccccn3)nc3ccccc23)c1,> 40 µM (inactive)
5,COc1ccccc1Nc1ncc(C(=O)NCCc2ccc(Cl)cc2)c2ccccc12,> 40 µM (inactive)
6,COC(=O)c1ccc(C2c3[nH]c4ccccc4c3C[C@@H]3C(=O)N(c4ccc5c(c4)OCCO5)C(=O)N23)cc1 (stereo partly specified),> 40 µM (inactive)
7,Cc1c(NC(=O)/C=C/c2cccc(Cl)c2Cl)cccc1-n1cnnn1,> 40 µM (inactive)
8,COC(=O)c1ccc2c(=O)n(CCCCCC(=O)NCc3cccc(Cl)c3)c(=O)[nH]c2c1,16 µM
9,CCOc1cccc(-c2noc(-c3nn(-c4ccccc4)ccc3=O)n2)c1,> 40 µM (inactive)
10,O=C(Cn1c(=O)[nH]c2ccccc2c1=O)NCc1ccccc1Cl,> 40 µM (inactive)
11,Cc1[nH]c2ccc(F)cc2c(=O)c1CN1CCCCC1,> 40 µM (inactive)
12,COc1cccc(NC(=O)Cn2c3ccccc3n3c(=O)cc(-c4ccccc4)nc23)c1,14.6 µM
13,CCOc1ccc(-c2nc(SCC(=O)Nc3cccc(C)c3)n3[nH]c(=O)cc3n2)cc1,> 40 µM (inactive)
14,O=C(Cn1ccc2ccn(Cc3ccccc3)c2c1=O)Nc1ccccc1Cl,> 40 µM (inactive)
15,O=C(Cn1c(=O)n(CC2CCC(C(=O)NCCc3ccccc3)CC2)c(=O)c2ccccc21)NCc1ccco1 (stereo unspecified),22.7 µM
16,Cc1ccccc1-c1nnc2sc(COc3ccc(Cl)cc3)nn12,> 40 µM (inactive)
17,CN(C)S(=O)(=O)c1ccc(NC(=O)CN2CCCc3ccccc32)cc1,> 40 µM (inactive)
18,O=C(Cn1c(=O)c2cccn2c2ccccc21)NCc1ccc(F)cc1,> 40 µM (inactive)
19,CC(C)NC(=O)Cn1ccn2nc(-c3ccc(Cl)cc3)cc2c1=O,> 40 µM (inactive)
20,Cc1c(C)n(-c2ccccc2)c2ncn(CC(=O)NCc3cccc(F)c3)c(=O)c12,> 40 µM (inactive)
21,CCCCCCCCCC(CCCCCCCCCC(=O)O)O[C@H]1O[C@@H](COC(C)=O)[C@H](O)[C@@H](OC(=O)CC(=O)O)[C@H]1O (stereo partly specified),30.6 µM
22,CSc1cccc(NC(=O)c2cc(-c3cccnc3)n[nH]2)c1,> 40 µM (inactive)

row,Structure (SMILES),IC50
1,O=c1cc(Cc2ccccc2)nc2c(-c3ccccc3)c(COc3ccccc3)[nH]n12,inactive
2,Cc1ccccc1-c1noc(-c2ccccc2OCC(=O)NC(C)C)n1,> 40 µM (inactive)
3,CCc1ccccc1NC(=O)Cn1c(SCc2ccc(F)cc2)nc2cccnc21,25 µM
4,CC(=O)NS(=O)(=O)c1ccc(NC(=O)/C=C/c2cn(-c3ccccc3)nc2-c2ccccc2)cc1,18.8 µM
5,Cc1ccc(C)c(S(=O)(=O)N2CCN(c3ccc4nnc(-c5ccco5)n4n3)CC2)c1,> 40 µM (inactive)
6,CCc1ccc(NC(=O)CSc2nc3nccnc3c(=O)n2Cc2ccc(F)cc2)cc1,> 40 µM (inactive)
7,O=C(NCc1ccco1)c1ccc(Cn2c(=O)c3sccc3n(Cc3cc(=O)n4ccccc4n3)c2=O)cc1,> 40 µM (inactive)
8,CC1OC2CC(O)C1(O)C1=C2C(O)=C(C(N)=O)C(=N)C1=O (stereo unspecified),7.46 µM
9,O=C1c2c(O)c(Cl)cc3c2[C@@]2(Oc4ccc(O)c5c4[C@]3(O2)[C@@H]2O[C@@H]2C5=O)[C@@H]2O[C@H]12,1.31 µM
10,O=C(OC1CSc2nc3ccccc3n2C1)c1ccc([N+](=O)[O-])o1 (stereo unspecified),22.7 µM
11,COC(=O)c1ccc(NC(=O)c2ccc(COc3cc(Cl)ccc3Cl)cc2)cc1,> 40 µM (inactive)
12,O=C(NC1(O)C(=O)c2ccccc2C1=O)c1ccc(-c2csnn2)cc1,9.45 µM
13,CCCCNC(=O)CSc1nnc(-c2cc3ccccc3n2C)o1,> 40 µM (inactive)
14,Cc1ccc(Nc2nc(NCC(=O)Nc3cc(C)ccc3C)nc(Nc3ccc(C)cc3)n2)cc1,32.8 µM
15,Nc1c(C(=O)NCc2ccc3c(c2)OCO3)nnn1Cc1ccc(Br)cc1F,18.4 µM
16,O=C(COc1ccc(N2CC(C(=O)NCc3ccc4c(c3)OCO4)CC2=O)cc1)Nc1ccc(Cl)cc1 (stereo unspecified),11.8 µM
17,Cc1cc(-c2nnc(SCC(=O)Nc3ccc(Br)c(C)c3)n2N)n[nH]1,> 40 µM (inactive)
18,O=C(CNC(=O)OCc1ccccc1)Nc1ccc(Br)cc1C(=O)c1ccccc1Cl,> 40 µM (inactive)
19,O=C(CCn1c(=O)c2ccccc2n(CC(=O)OCc2ccccc2)c1=O)NCc1ccc2c(c1)OCO2,17.5 µM
20,Cc1cccc(NC(=O)CSc2nnc(-c3n[nH]c4c3CCC4)n2N)c1C,> 40 µM (inactive)
21,CCn1cc2c(n1)c(=O)n(Cc1ccccc1)c(=O)n2CC(=O)NCc1ccc(C)cc1,> 40 µM (inactive)
22,Cc1cccc(OCC2=NN3C(=N)/C(=C\c4cc(C)n(-c5cc(C)cc(C)c5)c4C)C(=O)N=C3S2)c1,> 40 µM (inactive)

row,Structure (SMILES),IC50
1,CC(C)n1cc(CN2CCC(C(=O)Nc3cccc(-c4cccc(Cl)c4)c3)CC2)cn1,> 40 µM (inactive)
2,CCOc1ccc(NC(=O)Cn2c(=O)n(CCCCCC(=O)NCc3ccc(F)cc3)c(=O)c3sccc32)cc1,17.7 µM
3,COc1ccc2c(c1)CCc1c-2n[nH]c1C(=O)Nc1cc(C)on1,> 40 µM (inactive)
4,COC(=O)c1ccc2c(=O)n(CCCCCC(=O)NCCc3ccccc3Cl)c(=O)[nH]c2c1,> 40 µM (inactive)
5,Cc1ccc(C(=O)O)cc1NC(=O)C(Sc1cccc(NC(=O)c2cccc(Cl)c2)c1)c1ccccc1 (stereo unspecified),> 40 µM (inactive)
6,O=C(NCCc1nc2ccccc2n1CCOc1ccccc1Cl)C1CCCCC1,36.8 µM
7,COC(=O)c1c(OC)cc2c(c1C)Oc1c(Cl)c(O)c(Cl)c(C)c1C(=O)O2,17.3 µM
8,CCOc1ccc(NC(=O)Cn2c(=O)n(CCC(=O)NCc3ccco3)c(=O)c3ccccc32)cc1,24.4 µM
9,CCCc1nnc(NC(=O)c2cc(-c3ccccc3O)n[nH]2)s1,> 40 µM (inactive)
10,Cc1ccccc1Cn1c(=O)n(CC2CCC(C(=O)NC3CCCC3)CC2)c(=O)c2ccccc21 (stereo unspecified),> 40 µM (inactive)
11,O=C(Nc1cccc(Cl)c1)c1ncn2c1CNS(=O)(=O)c1ccccc1-2,19.1 µM
12,COc1ccccc1-c1nc(-c2cn(-c3cccc(Cl)c3)nn2)no1,25.6 µM
13,COc1ccc(-n2ccc(=O)c(-c3nc(-c4ccc(F)cc4)no3)n2)cc1,> 40 µM (inactive)
14,Nc1ccc(C(=O)OCC(=O)NC2CCCc3ccccc32)cc1[N+](=O)[O-] (stereo unspecified),37.7 µM
15,Cc1ccccc1-c1nc(-c2cn(CC(=O)Nc3ccccc3)cn2)no1,> 40 µM (inactive)
16,Cc1cc(NC(=O)Cn2c(=O)n(CCCCC(=O)NCc3ccco3)c(=O)c3ccccc32)ccc1Br,14.6 µM
17,Cc1nc(N2CCCC2)ncc1-c1cc(=O)[nH]c(Nc2ccc(Cl)cc2Cl)n1,12.2 µM
18,CCOc1ccccc1-c1cc(NC(=O)c2cc3ccc4cccnc4c3[nH]2)on1,> 40 µM (inactive)
19,O=C(NCc1ccc2c(c1)OCO2)c1cc2c(s1)CCC2,13.2 µM
20,O=C(COC(=O)c1ccc(NS(=O)(=O)c2ccc(F)c(F)c2)cc1)Nc1ccc(OCc2ccccc2)cc1,20.9 µM
21,O=C(NC1CCCC1)c1ccc(Cn2c(=O)c3ccccc3n(Cc3cc(=O)n4ccccc4n3)c2=O)cc1,> 40 µM (inactive)
22,O=C(Cc1ccc(-n2c(=O)c3ccccc3n(Cc3cccc([N+](=O)[O-])c3)c2=O)cc1)NC1CCCC1,> 40 µM (inactive)
